Data from ChEMBL document CHEMBL1128048, “Synthesis of chromophoric dipeptides as substrates for papain” (Bioorg Med Chem Lett, 1995).

What was measured:
Type in all cases: ADME
[1] = Compound was evaluated for catalytic constant, Kcat
[2] = Compound was evaluated for Michaelis-Menten constant, Km
[3] = Ratio of catalytic constant to Michaelis-Menten constant (Kcat/Km)

| SMILES | k cat [1] [min⁻¹] | Km [2] [Me-3] | Ratio [3] |
| --- | --- | --- | --- |
| CCOC(=O)N/C(=C/c1ccc(C)s1)C(=O)n1ccnc1 | 0.08 | – | – |
| CCOC(=O)/C(=C\c1ccc(C)s1)NC(=O)[C@H](C)NC(C)=O | 0.2 | 3.9 | 0.05 |
| Cc1ccc(/C=C\C(=O)n2ccnc2)s1 | 0.07 | – | – |
| CCOC(=O)/C(=C\c1ccc(C)s1)NC(=O)[C@H](Cc1ccccc1)NC(C)=O | 0.2 | 0.062 | 3.2 |
